US20170055529A1, “BROAD SPECTRUM WEED CONTROL IN FLOODED RICE BY IN-WATER APPLICATION OF AUXIN HERBICIDES” (priority 2015, published 2017)

Legend:
Format in all cases: in vivo
[1] = system: CYPDI = Cyperus difformis (small-flower flatsedge); test: Greenhouse in-water herbicidal activity (large pots); settings: for Percent (%) Visual Injury Ratings - 16 DAA, CYPDI / Percent (%) Visual Injury Ratings - 22 DAA, CYPDI: greenhouse large pots; for pest or weed control at 280 g/ha / pest or weed control at 560 g/ha / pest or weed control at 1120 g/ha: Cyperus difformis, 744 h, read-out: Percent (%) Visual Injury Ratings - 31 DAA, CYPDI
Procedure: (§1) Weed seeds or nutlets of the desired test plant species were planted in puddled soil (mud) prepared by mixing shredded topsoil and deionized (DI) water in a 1:1 ratio in a standard cement mixer. […] Osmocote® (17:6:10 N:P:K; 0.5 teaspoon) was added to the bottom of a container. The container is a high-density polyethylene (HDPE) round container (4.163 L (1.1 gallon), 15 cm high×20.55 cm diameter; for treatment purposes, the surface area is calculated as 331 cm^2 with 1 hectare equivalent to 10^8 cm^2). The mud mixture (2,750 mL) was added to the container filling it half full. Stakes were placed horizontally in each container to create separate areas for which to plant each different plant species. Water was added on a regular basis to maintain the paddy flood, and supplemental lighting was provided with overhead metal halide 1000-Watt lamps as necessary.
(§2) Once the plants had reached the proper size (the growth stage of the various species ranged from 2 to 4 leaves), the containers were flooded with city water to a depth of 3 cm submerging the plants 80-100%. The outside of each container was measured and marked at a 3-cm line with a black permanent marker to eliminate water level variability during the trial period. Water was added daily to maintain this water depth. Triclopyr triethylammonium (as Garlon® 3 A, 360 g ae/L); triclopyr butoxyethyl ester (as Garlon® 4, 480 g ae/L); fluroxypyr methylheptyl ester (meptyl or MHE, as Starane® Ultra, 333 g ae/L); fluroxypyr acid (850 grams acid equivalent per kilogram (g ae/kg)); 2,4-dichlorophenoxyacetic acid dimethylammonium (2,4-D DMA, as Weedar® 64 EC, 456 g ae/L); 2,4-dichlorophenoxyacetic acid 2-ethylhexyl ester (2,4-D 2-EHE, as Agri Star®, 456 g ae/L); clopyralid olamine (as Stinger®, 360 g ae/L); and penoxsulam (as Grasp® SC, 240 g ai/L) were used. Each herbicide treatment for each pot was mixed in water (80 mL) and applied directly into the paddy water at rates adjusted to the surface area. The dry formulations were pre-weighed based on the rate of the active ingredient to be applied on a per unit area basis, placed in 30 mL vials, and capped. Granules were spread onto the top of the water in each pot and dispersed throughout the water. Treatments were replicated 3 times.
(§3) The treated plants and control plants were placed in a greenhouse as described above and water was added as needed to maintain a flood depth of 3 cm. […]

[2] = system: MOOVA = Monochoria vaginalis (monochoria); test: as above; settings: for Percent (%) Visual Injury Ratings - 16 DAA, MOOVA / Percent (%) Visual Injury Ratings - 22 DAA, MOOVA: greenhouse large pots; for pest or weed control at 280 g/ha / pest or weed control at 560 g/ha / pest or weed control at 1120 g/ha: Pontederia vaginalis, 744 h, read-out: Percent (%) Visual Injury Ratings - 31 DAA, MOOVA
Procedure: as §1, §2, §3

[3] = system: ECHCG = Echinochloa crus-galli (barnyardgrass); test: as above; settings: 744 h, read-out: Percent (%) Visual Injury Ratings - 31 DAA, ECHCG
Procedure: as §1, §2, §3

[4] = system: ORYSP = Oryza sativa (transplanted paddy rice); test: Greenhouse in-water application (large pots), crop injury
Procedure: as §1, §2, §3

[5] = system: MOOVA = Monochoria vaginalis (monochoria); test: Greenhouse in-water herbicidal activity (small pots)
Excerpt: (§4) Weed seeds of the desired test plant species were planted in puddled soil (mud) prepared by mixing a non-sterilized mineral soil (approximately 50 percent silt, 26 percent clay, and 24 percent sand, with a pH of about 7.6 and an organic matter content of about 2.9 percent) and water at a 1:1 volumetric ratio. The prepared mud was dispensed in 365 milliliter (mL) aliquots into 16-ounce (oz.) non-perforated plastic pots with a surface area of 86.59 square centimeters (cm^2) leaving a headspace of 3 centimeters (cm) in each pot. Mud was allowed to dry overnight prior to planting or transplanting. Rice seeds were planted in Sun Gro® MetroMix® 360 planting mixture, which typically has a pH of 6.0 to 6.8 and an organic matter content of about 30 percent, in plastic plug trays. Seedlings at the second or third leaf stage of growth were transplanted into 840 mL of mud contained in 32-oz. non-perforated plastic pots with a surface area of 86.59 cm^2 four days prior to herbicide application. The paddy was created by filling the headspace of the pots with 2.5 to 3 cm of water. When required to ensure good germination and healthy plants, a fungicide treatment and/or other chemical or physical treatment was applied. The plants were grown for 4-22 days (d) in a greenhouse with an approximate 14-hour (h) photoperiod which was maintained at about 29° C. during the day and 26° C. during the night. Nutrients were added as Osmocote® (19:6:12, Nitrogen:Phosphorus:Potassium (N:P:K)+minor nutrients) at 2 g per 16 oz. pot and 4 g per 32 oz. pot. Water was added on a regular basis to maintain the paddy flood, and supplemental lighting was provided with overhead metal halide 1000-Watt lamps as necessary. The plants were used for testing when they reached the second or third true leaf stage.
(§5) Triclopyr triethylammonium (as Grandstand® R, 359.5 grams acid equivalent per liter (g ae/L)); fluroxypyr methylheptyl ester (meptyl or MHE, as Starane™, 179.8 g ae/L); 2,4-dichlorophenoxyacetic acid dimethylammonium (2,4-D DMA, as Weedar® 64, 455.4 g ae/L); and penoxsulam (as Grasp® SC, 239.7 grams active ingredient per liter (g ai/L) were used. Measured amounts of formulated compounds were placed in individual 120 mL glass vials and were dissolved in 40 mL of an aqueous mixture containing 1.25% volume per volume (v/v) Agri-Dex® crop oil concentrate. Generally, multiple concentrations were tested utilizing the same stock solution. Applications were made by injecting an appropriate amount of the application solution into the aqueous layer of the paddy. Control plants were treated in the same manner with the solvent blank.
(§6) The treated plants and control plants were placed in a greenhouse as described above and water was added as needed to maintain a paddy flood. After approximately 3 weeks the condition of the test plants, compared with that of the untreated plants, was determined visually and scored on a scale of 0 to 100 percent where 0 corresponds to no injury or growth reduction and 100 corresponds to complete kill.

[6] = system: CYDPI = Cyperus difformis (small-flower flatsedge); test: as above
Excerpt: as §4, §5, §6

Compound	Percent (%) Visual Injury Ratings - 16 DAA, CYPDI ([1]; 35 g ae/ha)	Percent (%) Visual Injury Ratings - 22 DAA, CYPDI ([1]; 35 g ae/ha)	Percent (%) Visual Injury Ratings - 16 DAA, CYPDI ([1]; 70 g ae/ha)	Percent (%) Visual Injury Ratings - 22 DAA, CYPDI ([1]; 70 g ae/ha)	Percent (%) Visual Injury Ratings - 16 DAA, CYPDI ([1]; 140 g ae/ha)	Percent (%) Visual Injury Ratings - 22 DAA, CYPDI ([1]; 140 g ae/ha)	Percent (%) Visual Injury Ratings - 16 DAA, CYPDI ([1]; 280 g ae/ha)	Percent (%) Visual Injury Ratings - 22 DAA, CYPDI ([1]; 280 g ae/ha)	pest or weed control at 280 g/ha [1]	pest or weed control at 560 g/ha [1]	pest or weed control at 1120 g/ha [1]	Percent (%) Visual Injury Ratings - 16 DAA, MOOVA ([2]; 35 g ae/ha)	Percent (%) Visual Injury Ratings - 22 DAA, MOOVA ([2]; 35 g ae/ha)	Percent (%) Visual Injury Ratings - 16 DAA, MOOVA ([2]; 70 g ae/ha)	Percent (%) Visual Injury Ratings - 22 DAA, MOOVA ([2]; 70 g ae/ha)	Percent (%) Visual Injury Ratings - 16 DAA, MOOVA ([2]; 140 g ae/ha)	Percent (%) Visual Injury Ratings - 22 DAA, MOOVA ([2]; 140 g ae/ha)	Percent (%) Visual Injury Ratings - 16 DAA, MOOVA ([2]; 280 g ae/ha)	Percent (%) Visual Injury Ratings - 22 DAA, MOOVA ([2]; 280 g ae/ha)	pest or weed control at 280 g/ha [2]	other results
O=C(O)COc1ccc(Cl)cc1Cl [2,4-D DMA (Weedar ® 64), dimethylammonium 2-(2,4-dichlorophenoxy)acetate]	99%	89%	100%	76%	98%	92%	97%	98%	100%	100%	100%	98%	84%	90%	72%	87%	88%	89%	98%	100%	pest or weed control at 560 g/ha [2]: 100%; pest or weed control at 1120 g/ha [2]: 100%; pest or weed control at 280 g/ha [3]: 30%; pest or weed control at 560 g/ha [3]: 38%; pest or weed control at 1120 g/ha [3]: 65%; Percent (%) Visual Injury Ratings - 31 DAA, ORYSP ([4]; 280 g ae/ha in-water): 0%; Percent (%) Visual Injury Ratings - 31 DAA, ORYSP ([4]; 560 g ae/ha in-water): 3%; Percent (%) Visual Injury Ratings - 31 DAA, ORYSP ([4]; 1120 g ae/ha in-water): 4%; Percent (%) Visual Injury Ratings - 20 DAA, MOOVA ([5]; 280 g ae/ha in-water): 90%; Percent (%) Visual Injury Ratings - 20 DAA, MOOVA ([5]; 560 g ae/ha in-water): 100%; Percent (%) Visual Injury Ratings - 20 DAA, MOOVA ([5]; 1120 g ae/ha in-water): 99%; Percent (%) Visual Injury Ratings - 20 DAA, CYDPI ([6]; 280 g ae/ha in-water): 90%; Percent (%) Visual Injury Ratings - 20 DAA, CYDPI ([6]; 560 g ae/ha in-water): 100%; Percent (%) Visual Injury Ratings - 20 DAA, CYDPI ([6]; 1120 g ae/ha in-water): 100%
CCCCCCC(C)OC(=O)COc1nc(F)c(Cl)c(N)c1Cl (stereo not drawn) [Fluroxypyr-meptyl (Starane ® Ultra), 1-methylheptyl 2-[(4-amino-3,5-dichloro-6-fluoro-2-pyridinyl)oxy]acetate]	8%	28%	13%	28%	20%	79%	33%	89%	100%	100%	100%	27%	0%	27%	3%	13%	0%	5%	15%	100%	pest or weed control at 560 g/ha [2]: 100%; pest or weed control at 1120 g/ha [2]: 100%; pest or weed control at 280 g/ha [3]: 45%; pest or weed control at 560 g/ha [3]: 75%; pest or weed control at 1120 g/ha [3]: 99%; Percent (%) Visual Injury Ratings - 31 DAA, ORYSP ([4]; 280 g ae/ha in-water): 5%; Percent (%) Visual Injury Ratings - 31 DAA, ORYSP ([4]; 560 g ae/ha in-water): 28%; Percent (%) Visual Injury Ratings - 31 DAA, ORYSP ([4]; 1120 g ae/ha in-water): 73%; Percent (%) Visual Injury Ratings - 20 DAA, MOOVA ([5]; 280 g ae/ha in-water): 85%; Percent (%) Visual Injury Ratings - 20 DAA, MOOVA ([5]; 560 g ae/ha in-water): 100%; Percent (%) Visual Injury Ratings - 20 DAA, MOOVA ([5]; 1120 g ae/ha in-water): 100%; Percent (%) Visual Injury Ratings - 20 DAA, CYDPI ([6]; 280 g ae/ha in-water): 100%; Percent (%) Visual Injury Ratings - 20 DAA, CYDPI ([6]; 560 g ae/ha in-water): 100%; Percent (%) Visual Injury Ratings - 20 DAA, CYDPI ([6]; 1120 g ae/ha in-water): 100%
O=C(O)COc1nc(Cl)c(Cl)cc1Cl [Triclopyr triethanolamine (Garlon ® 3A), triethylammonium 2[(3,5,6-trichloro-2-pyridinyl)oxy]acetate]	100%	100%	98%	100%	97%	100%	100%	100%	97%	99%	100%	84%	92%	89%	89%	78%	82%	98%	100%	100%	pest or weed control at 560 g/ha [2]: 100%; pest or weed control at 1120 g/ha [2]: 100%; pest or weed control at 280 g/ha [3]: 65%; pest or weed control at 560 g/ha [3]: 75%; pest or weed control at 1120 g/ha [3]: 89%; Percent (%) Visual Injury Ratings - 31 DAA, ORYSP ([4]; 280 g ae/ha in-water): 1%; Percent (%) Visual Injury Ratings - 31 DAA, ORYSP ([4]; 560 g ae/ha in-water): 5%; Percent (%) Visual Injury Ratings - 31 DAA, ORYSP ([4]; 1120 g ae/ha in-water): 70%; Percent (%) Visual Injury Ratings - 20 DAA, MOOVA ([5]; 280 g ae/ha in-water): 95%; Percent (%) Visual Injury Ratings - 20 DAA, MOOVA ([5]; 560 g ae/ha in-water): 99%; Percent (%) Visual Injury Ratings - 20 DAA, MOOVA ([5]; 1120 g ae/ha in-water): 100%; Percent (%) Visual Injury Ratings - 20 DAA, CYDPI ([6]; 280 g ae/ha in-water): 100%; Percent (%) Visual Injury Ratings - 20 DAA, CYDPI ([6]; 560 g ae/ha in-water): 100%; Percent (%) Visual Injury Ratings - 20 DAA, CYDPI ([6]; 1120 g ae/ha in-water): 100%
